Reference: ChEMBL document CHEMBL4480416, “Inducing Secondary Metabolite Production by Co-culture of the Endophytic Fungus Phoma sp. and the Symbiotic Fungus Armillaria sp” (2019)
Converted amounts (≈) assume the structure as drawn. The source made the active and inactive calls. No cut-off for these calls is given here.

How the values were obtained:
Staphylococcus aureus = test: Antimicrobial activity against Staphylococcus aureus at 0.5 to 256 ug/ml after 24 hrs by two-fold serial micro dilution method; type: functional
SW480 = test: Cytotoxicity against human SW480 cells assessed as reduction in cell viability at 40 uM after 48 hrs by MTS assay; type: functional, cell-based
A549 = test: Cytotoxicity against human A549 cells assessed as reduction in cell viability at 40 uM after 48 hrs by MTS assay; type: functional, cell-based
SMMC-7721 = test: Cytotoxicity against human SMMC7721 cells assessed as reduction in cell viability at 40 uM after 48 hrs by MTS assay; type: functional, cell-based
MCF7 = test: Cytotoxicity against human MCF7 cells assessed as reduction in cell viability at 40 uM after 48 hrs by MTS assay; type: functional, cell-based
Bacillus subtilis = test: Antimicrobial activity against Bacillus subtilis at 0.5 to 256 ug/ml after 24 hrs by two-fold serial micro dilution method; type: functional
Candida albicans = test: Antifungal activity against Candida albicans at 0.5 to 256 ug/ml after 4 days by two-fold serial micro dilution method; type: functional, organism-based
HL-60 = test: Cytotoxicity against human HL60 cells assessed as reduction in cell viability at 40 uM after 48 hrs by MTS assay; type: functional, cell-based
Escherichia coli = test: Antimicrobial activity against Escherichia coli at 0.5 to 256 ug/ml after 24 hrs by two-fold serial micro dilution method; type: functional

| Molecule | Activity (Staphylococcus aureus) | Activity (SW480) | Activity (A549) | Activity (SMMC-7721) | Activity (MCF7) | Activity (Bacillus subtilis) | Activity (Candida albicans) | Activity (HL-60) | Activity (Escherichia coli) | MIC (Staphylococcus aureus) [µg/mL] | MIC (Bacillus subtilis) [µg/mL] | MIC (Escherichia coli) [µg/mL] | MIC (Candida albicans) [µg/mL] |
| --- | --- | --- | --- | --- | --- | --- | --- | --- | --- | --- | --- | --- | --- |
| CCC[C@H](O)C/C=C/[C@@H](O)CCCC(=O)OC[C@@H](O)CO | inactive | inactive | inactive | inactive | inactive | inactive | inactive | inactive | inactive | – | – | – | – |
| CCC[C@H](O)C/C=C/[C@@H](O)CCCC(=O)OC | inactive | inactive | inactive | inactive | inactive | inactive | inactive | inactive | inactive | – | – | – | – |
| CCC[C@H](O)C/C=C/[C@@H](O)CCCC(=O)OCCCCCNC(C)=O | inactive | inactive | inactive | inactive | inactive | inactive | inactive | inactive | inactive | – | – | – | – |
| NC[C@H]1O[C@H](O[C@H]2[C@H](O)[C@@H](O[C@H]3O[C@H](CO)[C@@H](O)[C@H](N)[C@H]3O)[C@H](N)C[C@@H]2N)[C@H](O)[C@@H](O)[C@@H]1O [KANAMYCIN] | – | – | – | – | – | – | – | – | – | 4 (≈ 8.26 µM) | 4 (≈ 8.26 µM) | 8 (≈ 16.5 µM) | – |
| CCCC[C@@H](O)[C@H](O)c1ccccc1O | inactive | inactive | inactive | inactive | inactive | inactive | inactive | inactive | inactive | – | – | – | – |
| NYSTATIN | – | – | – | – | – | – | – | – | – | – | – | – | 4 |
| CCC[C@@H](O)[C@@H]1Oc2ccccc2[C@@H]1O | inactive | inactive | inactive | inactive | inactive | inactive | inactive | inactive | inactive | – | – | – | – |
